Assay results from PubChem BioAssay (NCI).
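Values below derive from 48-hour exposures of cells grown in 96-well plates, with endpoints linearly interpolated between the two concentrations bracketing the appropriate inhibition level. TGI: total growth inhibition.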

Columns and labels:
Assay in all cases: DTP human tumour cell line panel, 48 h
OVCAR-3 ovarian = test system: OVCAR-3 ovarian
CAKI-1 renal = test system: CAKI-1 renal
NCI-H522 lung = test system: NCI-H522 lung
HOP-18 NSCLC = test system: HOP-18 NSCLC
ACHN renal = test system: ACHN renal
SNB-19 CNS = test system: SNB-19 CNS
SF-268 CNS = test system: SF-268 CNS
786-0 renal = test system: 786-0 renal
SF-539 CNS = test system: SF-539 CNS
COLO 205 colon = test system: COLO 205 colon
CCRF-CEM leukemia = test system: CCRF-CEM leukemia
SK-MEL-2 melanoma = test system: SK-MEL-2 melanoma
M14 melanoma = test system: M14 melanoma
OVCAR-5 ovarian = test system: OVCAR-5 ovarian
UACC-62 melanoma = test system: UACC-62 melanoma
HOP-92 NSCLC = test system: HOP-92 NSCLC
HS 578T breast = test system: HS 578T breast
BT-549 breast = test system: BT-549 breast
T-47D breast = test system: T-47D breast
MCF7 breast = test system: MCF7 breast

Structure (SMILES) | TGI (OVCAR-3 ovarian) [µM] | TGI (CAKI-1 renal) [µM] | TGI (NCI-H522 lung) [µM] | TGI (HOP-18 NSCLC) [µM] | TGI (ACHN renal) [µM] | TGI (SNB-19 CNS) [µM] | TGI (SF-268 CNS) [µM] | TGI (786-0 renal) [µM] | TGI (SF-539 CNS) [µM] | TGI (COLO 205 colon) [µM] | TGI (CCRF-CEM leukemia) [µM] | TGI (SK-MEL-2 melanoma) [µM] | TGI (M14 melanoma) [µM] | TGI (OVCAR-5 ovarian) [µM] | TGI (UACC-62 melanoma) [µM] | TGI (HOP-92 NSCLC) [µM] | TGI (HS 578T breast) [µM] | TGI (BT-549 breast) [µM] | TGI (T-47D breast) [µM] | TGI (MCF7 breast) [µM]
c1cnc2c(c1)-n1cccc1C1(CCSC1)NN2 (stereo not given) | > 100 | > 100 | > 100 | > 100 | > 100 | > 100 | > 100 | > 100 | > 100 | > 100 | > 100 | > 100 | > 100 | > 100 | – | – | – | – | – | –
Cc1ccc(NCC(=O)N2CC(=O)Nc3ccccc32)cc1 | > 100 | > 100 | > 100 | > 100 | > 100 | > 100 | > 100 | > 100 | > 100 | > 100 | > 100 | > 100 | > 100 | > 100 | > 100 | > 100 | – | – | – | –
CC(=O)OC1CC2(C)OC(Cc3ccccc32)O1 (stereo not given) | > 100 | – | > 100 | > 100 | > 100 | > 100 | > 100 | > 100 | > 100 | > 100 | > 100 | > 100 | > 100 | – | > 100 | > 100 | – | – | – | –
Cc1cc(C)n2c(-c3ccccc3)c(C)cc2n1 | 83.3 | > 100 | 64.4 | > 100 | > 100 | > 100 | > 100 | > 100 | 73.4 | > 100 | 43.6 | > 100 | > 100 | > 100 | > 100 | > 100 | – | – | – | –
Cc1ccc2c(c1)C1C(CO2)C(c2ccccc2)=NN1c1ccccc1 (stereo not given) | > 100 | – | > 100 | > 100 | > 100 | > 100 | > 100 | > 100 | > 100 | > 100 | > 100 | > 100 | – | > 100 | – | > 100 | – | – | – | –
Cc1c(-c2ccccc2)c(C#N)c2nnn(C3CCCCC3)c(=O)n12 | > 100 | 47.1 | > 100 | – | > 100 | > 100 | > 100 | > 100 | > 100 | > 100 | > 100 | > 100 | > 100 | > 100 | > 100 | 80.8 | > 100 | > 100 | > 100 | > 100
Cc1ccc2c(c1)C1(OC(=O)c3ccccc31)c1ccc(F)cc1O2 (stereo not given) | > 100 | > 100 | > 100 | > 100 | – | – | > 100 | > 100 | – | > 100 | > 100 | > 100 | > 100 | > 100 | > 100 | > 100 | – | – | – | –
COc1cccc2c3ccccc3c3nc[nH]c3c12 | > 100 | > 100 | > 70.1 | – | > 100 | > 100 | > 100 | > 57.9 | 52 | 36.1 | 52.5 | > 100 | > 100 | > 100 | > 100 | 61.9 | 3.75 | > 100 | > 100 | > 100
C[C@H](NC(=O)n1c2ccccc2c2ccccc21)C(=O)O | > 100 | > 100 | > 100 | > 100 | > 100 | > 100 | > 100 | > 100 | > 100 | > 100 | > 100 | > 100 | – | > 100 | > 100 | > 100 | – | – | – | –
CC(=O)Oc1c2c(c(CC=C(C)C)c3c1C(=O)C1=C[C@@H]4CC5C(C)(C)OC(C/C=C(/C)C(=O)O)(C4=O)[C@@]15O3)OC(C)(CCC=C(C)C)C=C2 (stereo not given in full) | 0.922 | 0.409 | 0.281 | – | 0.279 | 1.38 | 1.56 | 0.364 | 0.252 | 0.421 | 4.75 | 0.982 | 0.814 | 1.16 | 0.86 | 1.05 | 1.44 | 0.461 | 0.439 | 1.4
CC(C)COC(=O)OC(=O)c1ccc(N(C)Cc2cnc3nc(N)nc(N)c3n2)cc1 | > 100 | > 100 | > 100 | – | > 79.4 | > 100 | > 100 | > 100 | > 51.8 | > 100 | > 100 | > 100 | > 100 | > 100 | > 100 | > 100 | > 100 | 97.8 | > 100 | > 100
CC(Oc1ccc(OCC2CCCCC2)cc1)C(=O)NCCO (stereo not given) | > 100 | – | > 100 | > 100 | > 100 | > 100 | > 100 | > 100 | > 100 | – | > 100 | > 100 | > 100 | – | > 100 | – | – | – | – | –
Cc1cc2oc(-c3ccccc3)c(C)c(=O)c2c2c1OC(C)(C)S2 | > 100 | – | > 100 | > 100 | > 100 | > 100 | > 100 | > 100 | > 100 | > 100 | > 100 | > 100 | > 100 | > 100 | > 100 | > 100 | – | – | – | –
CCOC(=O)NC(C(=O)OCC)(N1CCN(c2cc3c(cc2F)c(=O)c(C(=O)O)cn3CC)CC1)C(F)(F)F (stereo not given) | > 100 | > 100 | > 100 | – | > 100 | > 100 | > 100 | > 100 | > 100 | > 100 | > 100 | > 100 | > 100 | > 100 | > 100 | > 100 | > 100 | > 100 | > 100 | > 100
O=C(O)CC1NC(/C(=C/c2ccccc2O)NC(=O)c2ccccc2)OC1=O (stereo not given) | > 61.2 | > 100 | > 100 | – | > 51 | 49.5 | > 45.1 | > 100 | 66.9 | > 100 | > 100 | > 100 | > 100 | > 100 | > 100 | > 100 | > 100 | 52 | > 100 | > 100
O=c1cc(N2CCCC2)[nH]c(=O)n1-c1ccc(F)cc1 | > 100 | > 100 | > 100 | – | > 100 | > 100 | > 100 | > 100 | > 100 | > 100 | > 100 | > 100 | > 100 | > 100 | > 100 | > 100 | > 100 | > 100 | > 100 | > 100
O=C(NNCC(F)(F)F)c1ccncc1 | > 100 | > 100 | > 100 | – | > 100 | > 100 | > 100 | > 100 | > 100 | > 100 | > 100 | > 100 | > 100 | > 100 | > 100 | > 100 | > 100 | > 100 | > 100 | > 100
CC1=NN2C(c3ccc(C)cc3)=CSC2=NC(C)(C)C1 | > 100 | – | > 100 | > 100 | > 100 | > 100 | > 100 | > 100 | > 100 | > 100 | > 100 | > 100 | > 100 | > 100 | > 100 | > 100 | – | – | – | –
COC(=O)C(C(=O)C(=O)Nc1ccccc1C#N)c1nc2ccc([N+](=O)[O-])cc2[nH]c1=O (stereo not given) | > 100 | > 100 | > 100 | – | > 100 | > 100 | > 100 | > 100 | > 100 | > 100 | > 100 | > 100 | > 100 | > 100 | > 100 | > 100 | > 100 | > 100 | > 100 | > 100
COc1ccc(N2C(=O)c3c(c4[nH]c5ccc(OC)cc5c4c4ccc(C(C)(C)C)cc34)C2=O)cc1 | > 100 | – | > 100 | > 100 | > 100 | > 100 | > 100 | > 100 | > 100 | > 100 | > 100 | > 100 | > 100 | > 100 | – | > 100 | – | – | – | –
COC(=O)C1=CC2CC1C(S(=O)(=O)c1ccccc1)C2S(=O)(=O)c1ccccc1 (stereo not given) | 21.2 | 20.8 | – | 30.5 | – | > 100 | 53.5 | 22.2 | – | 22 | 8.44 | – | 25.5 | 28.3 | 67.9 | 29.4 | – | – | – | –
